Test results as given in paper PMC7047876, “Potent Chimeric Antimicrobial Derivatives of the Medicago truncatula NCR247 Symbiotic Peptide” (Frontiers in Microbiology, 2020).
In brackets after ≈: the same amount, converted by molar mass. Entries after “also recorded” stand apart in the source; their conditions may differ. Like-named read-outs stand apart in the source and are kept apart here. Peptide text beside a SMILES is read from it.

Columns and labels:
Type in all cases: cell-based
[1] = tested on: ESKAPE bacteria, L. monocytogenes and S. enterica; experiment: Antimicrobial activity in PPB, summarised over the tested bacteria; details: 3 h in PPB; carbenicillin range excludes L. monocytogenes; peptide G range excludes E. faecalis
Text: (§1) The pathogenic bacterial strains obtained from the ATCC (United States) and NCTC (National Collection of Type Cultures – England) were the Gram-positive: Enterococcus faecalis (ATCC 29212), Staphylococcus aureus (HNCMO112011), Listeria monocytogenes (ATCC 19111) and the Gram-negative: Pseudomonas aeruginosa (ATCC 27853), Escherichia coli (ATCC 8739), Salmonella enterica (ATCC 13076), Klebsiella pneumoniae (NCTC 13440), Acinetobacter baumannii (ATCC 17978).
(§2) Overnight bacterial cultures grown in LB were diluted and grown to OD600 = 0.2–0.6 at 37°C with shaking. After harvesting and washing bacteria in PPB, the suspensions were adjusted to OD600 = 0.1 corresponding to ∼10^7 bacteria/mL. Antimicrobial activity of the peptides and the antibiotics was determined in PPB in 96 well microplates using 10 μL bacterial suspension and 90 μL of the 2-fold serial dilutions of peptides or antibiotics. Peptides were tested from 25 μM to 0.125 μM whereas the antibiotics; carbenicillin (Cb) from Duchefa Biochemie (Prod.No. C0109.0025) and levofloxacin (Lvx) from Sigma-Aldrich (Prod.No. 28266-10MG-F) from […] to 0.1 μM. The microplates were incubated for 3 h at 37°C with 250 rpm shaking and then 5 μl from each sample was placed on LB agar and the growth of bacteria was monitored after overnight incubation at 37°C. The lowest concentration of the antimicrobial agents, which completely eliminated viable bacteria was the minimal bactericidal concentration (MBC).

[2] = tested on: Staphylococcus aureus (HNCMO112011); experiment: microbe, parasite or virus in culture; details: read-out: Minimal bactericidal concentration (MBC) S. a.
Text: as §1, §2

[3] = tested on: Escherichia coli (ATCC 8739); experiment: microbe, parasite or virus in culture; details: read-out: Minimal bactericidal concentration (MBC) E. c.
Text: as §1, §2

[4] = tested on: Salmonella enterica (ATCC 13076); experiment: microbe, parasite or virus in culture; details: read-out: Minimal bactericidal concentration (MBC) S. e.
Text: as §1, §2

[5] = tested on: Pseudomonas aeruginosa (ATCC 27853); experiment: microbe, parasite or virus in culture; details: read-out: Minimal bactericidal concentration (MBC) P. a.
Text: as §1, §2

[6] = tested on: Klebsiella pneumoniae (NCTC 13440); experiment: microbe, parasite or virus in culture; details: read-out: Minimal bactericidal concentration (MBC) K. p.
Text: as §1, §2

[7] = tested on: Listeria monocytogenes (ATCC 19111); experiment: microbe, parasite or virus in culture; details: read-out: Minimal bactericidal concentration (MBC) L. m.
Text: as §1, §2

[8] = tested on: Enterococcus faecalis (ATCC 29212); experiment: microbe, parasite or virus in culture; details: read-out: Minimal bactericidal concentration (MBC) E. f.
Text: as §1, §2

[9] = tested on: Acinetobacter baumannii (ATCC 17978); experiment: microbe, parasite or virus in culture; details: read-out: Minimal bactericidal concentration (MBC) A. b.
Text: as §1, §2

[10] = tested on: Acinetobacter baumannii
Text: as §1
(§3) Ca^2+ and Mg^2+ can inhibit the antimicrobial activity of cationic peptides, therefore the MBC and MIC values were also determined in MHB, which unlike PPB contains divalent cations and allows growth of bacteria. Bacteria were grown and prepared similarly except that bacteria were resuspended in MHB. 10 μl of bacteria OD600 = 0.1, supplemented with 45 μl MHB and 45 μl of 2-fold dilution series of peptides, were cultivated for 3 and 20 h at 37°C with shaking. Optical density of each sample was measured (Hidex Sense Microplate Reader with Plate Reader Software version 5064) and 5 μl was placed on LB agar plates after 3 and 20 h treatment. The minimal inhibitory concentration (MIC) corresponded to the lowest concentration, which inhibited growth.

[11] = tested on: Staphylococcus aureus
Text: as §1, §3

[12] = tested on: Escherichia coli
Text: as §1, §3

[13] = tested on: human melanoma A375 cells; experiment: XTT cell proliferation (cytotoxicity) assay; details: 72 h treatment, OD450, three biological repeats
Procedure: The cytotoxicity of peptides X1-NCR247C and NCR247C-X2 was determined against the human melanoma A375 cells with XTT cell proliferation assay kit (PanReac Applichem) and a benchtop microplate reader (Multiskan RC, Thermo Labsystems) according to the manufacturers’ instructions. A375 human melanoma cell line was obtained from ATCC and maintained in DMEM (Lonza) supplemented by 10% FBS (Euroclone) in a humidified incubator at 37°C and 5% CO2. A375 cells were seeded to 96-well plates (4,000 cells/well) and treated with the peptides for 72 h. Cells without peptides served as negative control and the blank sample was the medium. Reduction of the tetrazolium salt XTT by the viable cells to the orange colored compounds of formazan was measured at OD450. The XTT assay was performed in three biological repeats.

[14] = Staphylococcus aureus, 3 h treatment in PPB (20 mM potassium-phosphate buffer, pH 7.4), 37°C, then plating on LB agar
[15] = Escherichia coli, ATCC8739, 3 h treatment in PPB (20 mM potassium-phosphate buffer, pH 7.4), 37°C, then plating on LB agar
[16] = Salmonella enterica, ATCC13076, 3 h treatment in PPB (20 mM potassium-phosphate buffer, pH 7.4), 37°C, then plating on LB agar
[17] = Pseudomonas aeruginosa, ATCC27853, 3 h treatment in PPB (20 mM potassium-phosphate buffer, pH 7.4), 37°C, then plating on LB agar
[18] = Klebsiella pneumoniae, NCTC13440, 3 h treatment in PPB (20 mM potassium-phosphate buffer, pH 7.4), 37°C, then plating on LB agar
[19] = Listeria monocytogenes, ATCC19111, 3 h treatment in PPB (20 mM potassium-phosphate buffer, pH 7.4), 37°C, then plating on LB agar
[20] = Enterococcus faecalis, ATCC29212, 3 h treatment in PPB (20 mM potassium-phosphate buffer, pH 7.4), 37°C, then plating on LB agar
[21] = Acinetobacter baumannii, ATCC17978, 3 h treatment in PPB (20 mM potassium-phosphate buffer, pH 7.4), 37°C, then plating on LB agar

| Compound | MBC, range over the tested bacteria as summarised in the text [1] | MBC [2, 14] | MBC [3, 15] | MBC [4, 16] | MBC [5, 17] | MBC [6, 18] | MBC [7, 19] | MBC [8, 20] | MBC [9, 21] | Cytotoxicity / viability of A375 cells [13] | other results |
| --- | --- | --- | --- | --- | --- | --- | --- | --- | --- | --- | --- |
| CC1(C)S[C@@H]2[C@H](NC(=O)C(C(=O)O)c3ccccc3)C(=O)N2[C@H]1C(=O)O (stereo partly shown) [Cb, carbenicillin, reference compound] | 640 to 10240 µM | 640 µM (≈ 242 µg/mL) | 1280 µM (≈ 484 µg/mL) | 640 µM (≈ 242 µg/mL) | 10200 µM (≈ 3870 µg/mL) | > 10200 µM | 80 µM (≈ 30.3 µg/mL) | 5120 µM (≈ 1940 µg/mL) | 5120 µM (≈ 1940 µg/mL) | – | – |
| CSCC[C@H](NC(=O)[C@H](CCCCN)NC(=O)[C@H](Cc1ccccc1)NC(=O)[C@H](CC(N)=O)NC(=O)[C@H](CC(C)C)NC(=O)[C@@H]1CCCN1C(=O)[C@@H](N)CCCNC(=N)N)C(=O)N[C@@H](CC(C)C)C(=O)N[C@@H](CCCNC(=N)N)C(=O)N[C@@H](Cc1ccccc1)C(=O)N[C@@H](Cc1c[nH]c2ccccc12)C(=O)NCC(=O)N[C@@H](CCC(N)=O)C(=O)N[C@@H](CCC(N)=O)C(=O)N[C@@H](CCC(N)=O)C(=O)N[C@@H](CS)C(=O)N[C@@H](CCCNC(=N)N)C(=O)N[C@@H](CCCNC(=N)N)C(=O)N1CCC[C@H]1C(=O)N[C@@H](CC(C)C)C(=O)N[C@@H](Cc1ccc(O)cc1)C(=O)N[C@@H](CS)C(=O)N[C@@H](CCCNC(=N)N)C(=O)N[C@@H](CCCNC(=N)N)C(=O)N[C@@H](CCCNC(=N)N)C(N)=O [D, X1-NCR247C] (H-RPLNFKMLRFWGQQQCRRPLYCRRR-NH2; N-terminus assumed) | – | – | – | – | – | – | – | – | – | did not show differences | MBC ([2]; HNCMO112011, 3 h, pH 7.4): 3.1 µM (≈ 10.3 µg/mL); MBC ([3]; ATCC 8739, 3 h, pH 7.4): 3.1 µM (≈ 10.3 µg/mL); MBC ([4]; ATCC 13076, 3 h, pH 7.4): 1.6 µM (≈ 5.29 µg/mL); MBC ([5]; ATCC 27853, 3 h, pH 7.4): 3.1 µM (≈ 10.3 µg/mL); MBC ([6]; NCTC 13440, 3 h, pH 7.4): 12.5 µM (≈ 41.4 µg/mL); MBC ([7]; ATCC 19111, 3 h, pH 7.4): 3.1 µM (≈ 10.3 µg/mL); MBC ([8]; ATCC 29212, 3 h, pH 7.4): 6.3 µM (≈ 20.8 µg/mL); MBC ([9]; ATCC 17978, 3 h, pH 7.4): 3.1 µM (≈ 10.3 µg/mL); MBC in Mueller Hinton Broth, panel (A), A. b. ([10]; 3 h): 6.3 µM (≈ 20.8 µg/mL); MBC in Mueller Hinton Broth, panel (B), A. b. ([10]; 20 h): 3.1 µM (≈ 10.3 µg/mL); MIC in Mueller Hinton Broth, panel (C), A. b. ([10]; 20 h): 3.1 µM (≈ 10.3 µg/mL); MBC in Mueller Hinton Broth, panel (A), S. a. ([11]; 3 h): 25 µM (≈ 82.7 µg/mL); MBC in Mueller Hinton Broth, panel (B), S. a. ([11]; 20 h): 3.1 µM (≈ 10.3 µg/mL); MIC in Mueller Hinton Broth, panel (C), S. a. ([11]; 20 h): 3.1 µM (≈ 10.3 µg/mL); MBC in Mueller Hinton Broth, panel (A), E. c. ([12]; 3 h): 12.5 µM (≈ 41.4 µg/mL); MBC in Mueller Hinton Broth, panel (B), E. c. ([12]; 20 h): 3.1 µM (≈ 10.3 µg/mL); MIC in Mueller Hinton Broth, panel (C), E. c. ([12]; 20 h): 3.1 µM (≈ 10.3 µg/mL) |
| CC[C@H](C)[C@H](NC(=O)[C@H](CCCCN)NC(=O)[C@H](CCCCN)NC(=O)[C@H](C)NC(=O)[C@H](CC(C)C)NC(=O)[C@H](C)NC(=O)[C@H](C)NC(=O)[C@H](CC(C)C)NC(=O)[C@H](C)NC(=O)[C@H](CCCCN)NC(=O)[C@H](CCCNC(=N)N)NC(=O)[C@H](CCCNC(=N)N)NC(=O)[C@H](CCCNC(=N)N)NC(=O)[C@H](CS)NC(=O)[C@H](Cc1ccc(O)cc1)NC(=O)[C@H](CC(C)C)NC(=O)[C@@H]1CCCN1C(=O)[C@H](CCCNC(=N)N)NC(=O)[C@H](CCCNC(=N)N)NC(=O)[C@H](CS)NC(=O)[C@H](CCC(N)=O)NC(=O)[C@@H](N)CCC(N)=O)C(=O)N[C@@H](CC(C)C)C(N)=O [F, NCR247C-X2] (H-QQCRRPLYCRRRKALAALAKKIL-NH2; N-terminus assumed) | – | – | – | – | – | – | – | – | – | no cytotoxicity up to 12.5 μM; also recorded: slight decrease of the viable cell number was observed at 25 μM | – |
| C[C@H]1COc2c(N3CCN(C)CC3)c(F)cc3c(=O)c(C(=O)O)cn1c23 [Lvx, levofloxacin, reference compound] | 1.25 to 320 µM | 2.5 µM (≈ 0.903 µg/mL) | 5 µM (≈ 1.81 µg/mL) | 1.3 µM (≈ 0.47 µg/mL) | 1.3 µM (≈ 0.47 µg/mL) | 320 µM (≈ 116 µg/mL) | 320 µM (≈ 116 µg/mL) | 160 µM (≈ 57.8 µg/mL) | 20 µM (≈ 7.23 µg/mL) | – | – |
